Source: patent US8268330B2 (priority 2007, dated 2012)

Key:
[1] = Iron binding capacity by the ferrozine method; assay type: physicochemical; conditions: for iron binding capacity: ferrozine method
Experimental: Iron saturated mycobactin J was purchased from Allied Monitor (Fayette, Mo.). Iron was removed and mycobactin purified by initially reconstituting the lyophilized solution of crude Fe^3+-mycobactin J complex in CHCl3 and 4N HCl. The suspension was stirred for 30 min. The water phase was separated and 4N HCl was added. After being stirred for 30 min, water phase was removed; this process was conducted three times to provide clear color solution. The CHCl3 phase was dried over Na2SO4, and concentrated in vacuo. Purification by SiO2 (CHCl3:MeOH=20:1) gave Fe^3+-free mycobactin J. The preparation was determined to be greater than 94% pure by NMR spectroscopy. Crude preparations of mycobactin J (50 mgs) yielded 9.8 mg following iron removal and purification. The iron binding capacity of iron saturated and Fe^3+-free preparations were determined by the ferrozine method (Eagle Diagnostics, Desoto, Tex.).

[2] = tested on: HIF-1α in THP-1 and HL-60 cells and guinea pig alveolar macrophages; assay: Induction of HIF-1α in myelomonocytic cells and alveolar macrophages exposed to iron chelators in vitro; assay type: cell-based, human; guinea pig; conditions: for accumulation of cytoplasmic HIF-1α followed by nuclear translocation in a subset of the cells / concentration for HIF-1α induction effect (molar level): THP-1, HL-60 cells and guinea pig alveolar macrophages
[3] = tested on: TNF-α; assay: TNF-α production after exposure to iron chelators (L929-cytotoxicity assay); assay type: cell-based, human; guinea pig; conditions: following HIF-1α upregulation and nuclear translocation
Experimental: (§1) Alveolar macrophages were procured from naïve and BCG-vaccinated guinea pigs by lavage of the lungs in situ immediately following euthanasia. The isolated cells were subjected to Percoll gradient centrifugation (BO & Babiuk) to remove contaminating epithelial cells, neutrophils and erythrocytes. The cells were subsequently incubated overnight in chamber slides (Nunc) in RPMI medium with 10% fetal bovine serum (FBS) and antibiotics to allow the cells to adhere. THP-1 and HL60 cells, obtained from the ATCC (Rockville, Md.), were maintained in suspension in RPMI/10% FBS. The various cell types were washed thoroughly in Hank's balanced salt solution (HBSS) before incubation in HBSS without or with mycobactin or desferroxamine at various concentrations and for various length of time (see result section). At the end of the incubation time the spend media were collected and stored at −70° C. for later assay for IL-8 and TNF-α. The cells were then either spotted onto Teflon coated slides for immunolabelling for HIF-1α or HO-1 (see above) or were subjected to differential lysis to procure cytoplasmic and nuclear proteins, respectively. The protein samples were separated on 10% SDS-polyacrylamide gels and blotted onto nitrocellulose membranes. […]
(§2) TNF-α was quantitated using the L929-cytotoxicity assay and TGFβ1 assay was done by ELISA.

[4] = tested on: IL-8; assay: IL-8 secretion after exposure to iron chelators (ELISA); assay type: cell-based, human; guinea pig; conditions: following HIF-1α nuclear translocation; enhanced by PMA differentiation of the human cells
[5] = tested on: TGFβ1; assay: TGFβ1 production after exposure to iron chelators (ELISA); assay type: cell-based, human; guinea pig; conditions: following HIF-1α upregulation and nuclear translocation
Experimental: as §1, §2

With “Fe^3+-mycobactin J complex [Fe^3+-saturated mycobactin]” the iron binding capacity [1] was 0 µmol/L.

For `CC(=O)N(O)CCCCCNC(=O)CCC(=O)N(O)CCCCCNC(=O)CCC(=O)N(O)CCCCCN` [desferroxamine, reference compound], the “accumulation of cytoplasmic HIF-1α followed by nuclear translocation in a subset of the cells” value [2] was “induced accumulation of cytoplasmic HIF-1α in a dose-dependent manner”, the “concentration for HIF-1α induction effect (molar level)” value [2] was 10 to 100 µM and the “induction of TNF-α production” value [3] was “minimal”. For the same molecule, the IL-8 secretion [4] was “induction of IL-8 secretion” and the “induction of TGFβ1 production” value [5] was “minimal”.

With mycobactin J the “accumulation of cytoplasmic HIF-1α followed by nuclear translocation in a subset of the cells” value [2] was “induced accumulation of cytoplasmic HIF-1α in a dose-dependent manner”, the “concentration for HIF-1α induction effect (molar level)” value [2] was 1 to 5 µM and the “potency at inducing HIF-1α compared with desferrioxamine” value ([2]; THP-1 cells in vitro, molar equivalent) was “significantly more potent”. The “induction of TNF-α production” value [3] was “minimal”, the IL-8 secretion [4] was “induction of IL-8 secretion” and the “iron binding capacity compared with desferrioxamine” value ([1]; compared on a molar equivalent) was “lower iron binding capacity than desferrioxamine”. The “induction of TGFβ1 production” value [5] was “minimal”.

For “Fe^3+-free mycobactin J [Fe^3+-free preparation]”, the iron binding capacity [1] was 66.7 µmol/L.
